According to PubChem BioAssay AID1963832 (Molecular Pharmacology Branch, DTP, NCI, 2024):
pIC50: −log10 of the molar value.

Tested on: 885724-159-R-J1-PDC complex spheroid viability
Assay: Anticancer human tumor 885724-159-R-J1-PDC patient-derived pancreatic adenocarcinoma cell line growth inhibition [POLQ]
Settings: for pIC50: curve of first compound; for viability, T/C: stronger effect = lower value
Summary of the method: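 Patient-derived tumour cells were co-cultured with HUVEC and mesenchymal stem cells as multicellular spheroids at 37 °C. They were treated with POLQ inhibitors (novobiocin, ART-558, RP6685) alone or combined with other agents. Top concentrations were at or near clinical Cmax (otherwise 10 microM; SN-38 at 1 microM), decreasing in half-log steps.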
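Also: spheroids exposed to compounds for 7 days.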

Compound: CC(=O)O[C@H]1C(=O)[C@@]2(C)[C@H]([C@H](OC(=O)c3ccccc3)[C@]3(O)C[C@H](OC(=O)[C@H](O)[C@@H](NC(=O)c4ccccc4)c4ccccc4)C(C)=C1C3(C)C)[C@]1(OC(C)=O)CO[C@@H]1C[C@@H]2O + Cc1cccc(N(C)C(=O)C2C(O)CCN2c2nc(C)cc(C(F)(F)F)c2C#N)c1
- pIC50 (second compound 0.0316 µM): < 5.52
- pIC50 (second compound 0.1 µM): < 5.52
- pIC50 (second compound 0.316 µM): < 5.52
- pIC50 (second compound 1 µM): < 5.52
- pIC50 (second compound 3.16 µM): < 5.52
- pIC50 (second compound 10 µM): < 5.52
- viability, T/C (second compound 0.0316 µM, first compound 0.00949 µM): 76.7%
- viability, T/C (second compound 0.0316 µM, first compound 0.03 µM): 57.6%
- viability, T/C (second compound 0.0316 µM, first compound 0.0949 µM): 58.8%
- viability, T/C (second compound 0.0316 µM, first compound 0.3 µM): 62.2%
- viability, T/C (second compound 0.0316 µM, first compound 0.949 µM): 70.6%
- viability, T/C (second compound 0.0316 µM, first compound 3 µM): 61%
- viability, T/C (second compound 0.1 µM, first compound 0.00949 µM): 75.1%
- viability, T/C (second compound 0.1 µM, first compound 0.03 µM): 59.4%
- viability, T/C (second compound 0.1 µM, first compound 0.0949 µM): 59.8%
- viability, T/C (second compound 0.1 µM, first compound 0.3 µM): 70.4%
- viability, T/C (second compound 0.1 µM, first compound 0.949 µM): 67.3%
- viability, T/C (second compound 0.1 µM, first compound 3 µM): 70.6%
- viability, T/C (second compound 0.316 µM, first compound 0.00949 µM): 67.6%
- viability, T/C (second compound 0.316 µM, first compound 0.03 µM): 59.6%
- viability, T/C (second compound 0.316 µM, first compound 0.0949 µM): 63%
- viability, T/C (second compound 0.316 µM, first compound 0.3 µM): 63.6%
- viability, T/C (second compound 0.316 µM, first compound 0.949 µM): 75.4%
- viability, T/C (second compound 0.316 µM, first compound 3 µM): 69.7%
- viability, T/C (second compound 1 µM, first compound 0.00949 µM): 68.2%
- viability, T/C (second compound 1 µM, first compound 0.03 µM): 66.3%
- viability, T/C (second compound 1 µM, first compound 0.0949 µM): 62.8%
- viability, T/C (second compound 1 µM, first compound 0.3 µM): 67.2%
- viability, T/C (second compound 1 µM, first compound 0.949 µM): 69.1%
- viability, T/C (second compound 1 µM, first compound 3 µM): 68.9%
- viability, T/C (second compound 3.16 µM, first compound 0.00949 µM): 62.5%
- viability, T/C (second compound 3.16 µM, first compound 0.03 µM): 55.1%
- viability, T/C (second compound 3.16 µM, first compound 0.0949 µM): 59.4%
- viability, T/C (second compound 3.16 µM, first compound 0.3 µM): 63.8%
- viability, T/C (second compound 3.16 µM, first compound 0.949 µM): 67.6%
- viability, T/C (second compound 3.16 µM, first compound 3 µM): 64.5%
- viability, T/C (second compound 10 µM, first compound 0.00949 µM): 59.1%
- viability, T/C (second compound 10 µM, first compound 0.03 µM): 61.1%
- viability, T/C (second compound 10 µM, first compound 0.0949 µM): 61%
- viability, T/C (second compound 10 µM, first compound 0.3 µM): 66%
- viability, T/C (second compound 10 µM, first compound 0.949 µM): 62.7%
- viability, T/C (second compound 10 µM, first compound 3 µM): 72%

Compound: COc1cc(C2c3cc4c(cc3C(OC3OC5COC(C)OC5C(O)C3O)C3COC(=O)C23)OCO4)cc(OC)c1O (centres undefined) + Cc1cccc(N(C)C(=O)C2C(O)CCN2c2nc(C)cc(C(F)(F)F)c2C#N)c1
- pIC50 (second compound 0.0316 µM): 5.09
- pIC50 (second compound 0.1 µM): 5.04
- pIC50 (second compound 0.316 µM): 5.04
- pIC50 (second compound 1 µM): 5.16
- pIC50 (second compound 3.16 µM): 5.16
- pIC50 (second compound 10 µM): 5.22
- viability, T/C (second compound 0.0316 µM, first compound 0.0316 µM): 101%
- viability, T/C (second compound 0.0316 µM, first compound 0.1 µM): 90.2%
- viability, T/C (second compound 0.0316 µM, first compound 0.316 µM): 80.7%
- viability, T/C (second compound 0.0316 µM, first compound 1 µM): 75%
- viability, T/C (second compound 0.0316 µM, first compound 3.16 µM): 57.7%
- viability, T/C (second compound 0.0316 µM, first compound 10 µM): 48.1%
- viability, T/C (second compound 0.1 µM, first compound 0.0316 µM): 94.7%
- viability, T/C (second compound 0.1 µM, first compound 0.1 µM): 86.1%
- viability, T/C (second compound 0.1 µM, first compound 0.316 µM): 79.5%
- viability, T/C (second compound 0.1 µM, first compound 1 µM): 73.4%
- viability, T/C (second compound 0.1 µM, first compound 3.16 µM): 63.2%
- viability, T/C (second compound 0.1 µM, first compound 10 µM): 47.5%
- viability, T/C (second compound 0.316 µM, first compound 0.0316 µM): 95.4%
- viability, T/C (second compound 0.316 µM, first compound 0.1 µM): 99.8%
- viability, T/C (second compound 0.316 µM, first compound 0.316 µM): 74.6%
- viability, T/C (second compound 0.316 µM, first compound 1 µM): 71%
- viability, T/C (second compound 0.316 µM, first compound 3.16 µM): 58.2%
- viability, T/C (second compound 0.316 µM, first compound 10 µM): 48.4%
- viability, T/C (second compound 1 µM, first compound 0.0316 µM): 100%
- viability, T/C (second compound 1 µM, first compound 0.1 µM): 79.3%
- viability, T/C (second compound 1 µM, first compound 0.316 µM): 74%
- viability, T/C (second compound 1 µM, first compound 1 µM): 71%
- viability, T/C (second compound 1 µM, first compound 3.16 µM): 55.7%
- viability, T/C (second compound 1 µM, first compound 10 µM): 45.4%
- viability, T/C (second compound 3.16 µM, first compound 0.0316 µM): 98.1%
- viability, T/C (second compound 3.16 µM, first compound 0.1 µM): 96.9%
- viability, T/C (second compound 3.16 µM, first compound 0.316 µM): 76.2%
- viability, T/C (second compound 3.16 µM, first compound 1 µM): 67.3%
- viability, T/C (second compound 3.16 µM, first compound 3.16 µM): 58.6%
- viability, T/C (second compound 3.16 µM, first compound 10 µM): 45.9%
- viability, T/C (second compound 10 µM, first compound 0.0316 µM): 95.9%
- viability, T/C (second compound 10 µM, first compound 0.1 µM): 80%
- viability, T/C (second compound 10 µM, first compound 0.316 µM): 74.9%
- viability, T/C (second compound 10 µM, first compound 1 µM): 62.6%
- viability, T/C (second compound 10 µM, first compound 3.16 µM): 58.2%
- viability, T/C (second compound 10 µM, first compound 10 µM): 44.2%
